Here are results for one compound from US20230257480A1, “ENHANCING BLOOD-BRAIN BARRIER DRUG TRANSPORT BY TARGETING ENDOGENOUS REGULATORS” (THE BOARD OF TRUSTEES OF THE LELAND STANFORD JUNIOR …, priority 2019, published 2023).

This data set has as its system cerebrovascular morphology. The data set can be described thus: Cerebrovascular morphology by CD31 staining after ALPL inhibitor treatment. The data set is classed as in vivo. Conditions: aged (22 m.o.) mice, vs vehicle. The source says:
FIGS. 14A-14D are graphs illustrating flow cytometry quantification of brain endothelial cell uptake of plasma from young mice (3 m.o.) (FIG. 14A), plasma from aged mice (22 m.o.) (FIG. 14B), human holo-transferrin (hu-Tf) from aged mice (FIG. 14C), or transferrin receptor antibody (TfR Ab) from aged mice (FIG. 14D) treated with vehicle (grey) or anti-ALPL (green) via IP injections twice daily for three days, as assessed by % of BECs that are tracer^+ and relative MFI of tracer^+ BECs (for plasma, n=4; for hu-Tf, n=6 vehicle, n=5 anti-ALPL; for TfR Ab, n=9, two-sided t-test, mean+/−s.e.m.). Tracer refers to plasma, hu-Tf, or TfR Ab. FIG. 14E includes representative images of hu-Tf^+ neurons detected in the cortex of mice treated with ALPL inhibitor. Scale bar=40 microns. […] FIG. 14H includes graphs illustrating flow cytometry quantification of brain endothelial cell and brain parenchymal cell uptake of 3 kDa dextran tracer, which probes for disruptions in paracellular permeability, in young mice (3 m.o.) and aged mice (22 m.o.) (n=6 vehicle, n=5 anti-ALPL, two-sided t-test, mean+/−s.e.m.).
Brain tissue processing, immunohistochemistry, and immunofluorescence experiments were performed as described previously12,13. […] National Institutes of Health ImageJ software was used to quantify the percentage of vasculature (CD31 or AQP4) covered by CD13, AQP4, or ALPL, as described previously63. […]

As to `COc1ccc(OC)c(S(=O)(=O)Nc2cnc3ccccc3c2)c1` [ALPL inhibitor, 2,5-Dimethoxy-N-(quinolin-3-yl)benzenesulfonamide], the vascular morphology result is “did not perturb”.
